Experimental data published in patent publication US11178871B2, “Herbicidal pyrimidine compounds” (BASF SE, priority 2016, dated 2021).

What was measured:
Format in all cases: in vivo
Setaria faberi = assay: greenhouse test, pre-emergence treatment, SETFA
From the text: (§1) The culture containers used were plastic flowerpots containing loamy sand with approximately 3.0% of humus as the substrate. The seeds of the test plants were sown separately for each species.
(§2) For the pre-emergence treatment, the active ingredients, which had been suspended or emulsified in water, were applied directly after sowing by means of finely distributing nozzles. The containers were irrigated gently to promote germination and growth and subsequently covered with transparent plastic hoods until the plants had rooted. This cover caused uniform germination of the test plants, unless this had been impaired by the active ingredients.
(§3) Depending on the species, the plants were kept at 10-25° C. or 20-35° C., respectively.
(§4) The test period extended over 2 to 4 weeks. During this time, the plants were tended, and their response to the individual treatments was evaluated.
(§5) Evaluation was carried out using a scale from 0 to 100. 100 means no emergence of the plants, or complete destruction of at least the aerial moieties, and 0 means no damage, or normal course of growth. A good herbicidal activity is given at values of at least 70 and a very good herbicidal activity is given at values of at least 85.
(§6) The plants used in the greenhouse experiments were of the following species: […]

Echinocloa crus-galli [1] = assay: greenhouse test, post-emergence treatment, ECHCG
In short: (§7)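 Post-emergence: plants grown in loamy sand (~3.0% humus) to 3-15 cm, then sprayed with active ingredient suspended or emulsified in water; kept at 10-25 °C or 20-35 °C by species. Damage rated visually after 2-4 weeks, 0 (none) to 100 (complete destruction of aerial parts).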

Amaranthus retroflexus [2] = assay: greenhouse test, pre-emergence treatment, AMARE
From the text: as §1, §2, §3, §4, §5, §6

Poa annua [3] = assay: greenhouse test, post-emergence treatment, POAAN; settings: 2000 g/ha
From the text: as §1
(§8) For the post-emergence treatment, the test plants were first grown to a height of 3 to 15 cm, depending on the plant habit, and only then treated with the active ingredients which had been suspended or emulsified in water. For this purpose, the test plants were either sown directly and grown in the same containers, or they were first grown separately as seedlings and transplanted into the test containers a few days prior to treatment.
as §3, §4, §5, §6

Apera spica-venti [4] = assay: greenhouse test, pre-emergence treatment, APESV
In short: (§9)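 Pre-emergence greenhouse test: seeds sown per species in loamy sand (about 3.0% humus), aqueous suspension or emulsion of active sprayed right after sowing, pots covered until rooting. Kept at 10-25 °C or 20-35 °C for 2 to 4 weeks; damage scored 0 (none) to 100 (no emergence/complete destruction).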

Echinocloa crus-galli [5] = assay: greenhouse test, pre-emergence treatment, ECHCG
In short: as §9

Alopecurus myosuroides = assay: greenhouse test, post-emergence treatment, ALOMY
In short: as §7

Polygonum convolvulus = assay: greenhouse test, post-emergence treatment, POLCO; settings: 500 g/ha
From the text: as §1, §8, §3, §4, §5, §6

Amaranthus retroflexus [6] = assay: greenhouse test, post-emergence treatment, AMARE
In short: as §7

Apera spica-venti [7] = assay: greenhouse test, post-emergence treatment, APESV; settings: 500 g/ha
From the text: as §1, §8, §3, §4, §5, §6

Abutilon theophrasti = assay: greenhouse test, post-emergence treatment, ABUTH; settings: 1000 g/ha
In short: as §7

Setaria viridis = assay: greenhouse test, post-emergence treatment, SETVI; settings: 1000 g/ha
In short: as §7

Agrostis stolonifera = assay: greenhouse test, pre-emergence treatment, AGSST; settings: 2000 g/ha
From the text: as §1, §2, §3, §4, §5, §6

Avena fatua = assay: greenhouse test, post-emergence treatment, AVEFA; settings: 2000 g/ha
In short: as §7

Poa annua [8] = assay: greenhouse test, pre-emergence treatment, POAAN; settings: 2000 g/ha
From the text: as §1, §2, §3, §4, §5, §6

Matricaria inodora = assay: greenhouse test, post-emergence treatment, MATIN; settings: 2000 g/ha
From the text: as §1, §8, §3, §4, §5, §6

[9] = 500 g/ha, printed under post-emergence, method not restated

Cc1cocc1-c1nc(C2CC2)ncc1-c1ccccc1Br [Ex. 269]
herbicidal activity (Setaria faberi; 1000 g/ha): very good (a very good herbicidal activity is given at values of at least 85)
herbicidal activity (Echinocloa crus-galli [1]; post-emergence, 1000 g/ha): very good (a very good herbicidal activity is given at values of at least 85)

COC(C)Cc1nc(C2CC2)ncc1-c1ccccc1Cl (stereo not shown) [Ex. 233]
herbicidal activity (Amaranthus retroflexus [2]; 2000 g/ha): very good (a very good herbicidal activity is given at values of at least 85)

OC(c1cccs1)C(O)c1nc(C2CC2)ncc1-c1ccccc1Cl (stereo not shown) [Ex. 246]
herbicidal activity (Amaranthus retroflexus [2]; 500 g/ha): very good (a very good herbicidal activity is given at values of at least 85)

OC(c1nc(Cl)ccc1Cl)C(O)c1nc(C2CC2)ncc1-c1ccccc1Cl (stereo not shown) [Ex. 259]
herbicidal activity (Poa annua [3]): very good (a very good herbicidal activity is given at values of at least 85)
herbicidal activity (Apera spica-venti [4]; 2000 g/ha): good (A good herbicidal activity is given at values of at least 70)
herbicidal activity (Echinocloa crus-galli [5]; 2000 g/ha): good (A good herbicidal activity is given at values of at least 70)
herbicidal activity (Alopecurus myosuroides; post-emergence, 2000 g/ha): very good (a very good herbicidal activity is given at values of at least 85)
herbicidal activity (Echinocloa crus-galli [1]; post-emergence, 2000 g/ha): very good (a very good herbicidal activity is given at values of at least 85)

O=[N+]([O-])c1ccccc1-c1cnc(C2CC2)nc1-c1ccco1 [Ex. 37]
herbicidal activity (Setaria faberi; 2000 g/ha): good (A good herbicidal activity is given at values of at least 70)

CCc1nc(CC)c(-c2nc(C3CC3)ncc2-c2ccccc2Cl)o1 [Ex. 310]
herbicidal activity (Polygonum convolvulus): very good (a very good herbicidal activity is given at values of at least 85)
herbicidal activity (Amaranthus retroflexus [6]; 500 g/ha): very good (a very good herbicidal activity is given at values of at least 85)
herbicidal activity (Alopecurus myosuroides; [9]): very good (a very good herbicidal activity is given at values of at least 85)
herbicidal activity (Alopecurus myosuroides; post-emergence, 500 g/ha): very good (a very good herbicidal activity is given at values of at least 85)
herbicidal activity (Echinocloa crus-galli [1]; [9]): very good (a very good herbicidal activity is given at values of at least 85)
herbicidal activity (Apera spica-venti [7]): very good (a very good herbicidal activity is given at values of at least 85)

CCc1ncoc1-c1nc(C2CC2)ncc1-c1ccccc1Cl [Ex. 286]
herbicidal activity (Abutilon theophrasti): very good (a very good herbicidal activity is given at values of at least 85)
herbicidal activity (Apera spica-venti [4]; 1000 g/ha): very good (a very good herbicidal activity is given at values of at least 85)
herbicidal activity (Echinocloa crus-galli [5]; 1000 g/ha): very good (a very good herbicidal activity is given at values of at least 85)
herbicidal activity (Amaranthus retroflexus [6]; 1000 g/ha): very good (a very good herbicidal activity is given at values of at least 85)
herbicidal activity (Echinocloa crus-galli [1]; post-emergence, 1000 g/ha): very good (a very good herbicidal activity is given at values of at least 85)
herbicidal activity (Amaranthus retroflexus [2]; 1000 g/ha): very good (a very good herbicidal activity is given at values of at least 85)

COc1ncc(OC)c(-c2nc(C3CC3)ncc2-c2ccccc2Cl)n1 [Ex. 251]
herbicidal activity (Amaranthus retroflexus [2]; 500 g/ha): very good (a very good herbicidal activity is given at values of at least 85)

Clc1ccccc1-c1cnc(C2CC2)nc1C1CCOC1 (stereo not shown) [Ex. 59]
herbicidal activity (Setaria faberi; 1000 g/ha): good (A good herbicidal activity is given at values of at least 70)
herbicidal activity (Echinocloa crus-galli [5]; 1000 g/ha): very good (a very good herbicidal activity is given at values of at least 85)
herbicidal activity (Setaria viridis): very good (a very good herbicidal activity is given at values of at least 85)
herbicidal activity (Echinocloa crus-galli [1]; post-emergence, 1000 g/ha): good (A good herbicidal activity is given at values of at least 70)

Clc1ccccc1-c1cnc(C2CC2)nc1-c1ccnnc1 [Ex. 234]
herbicidal activity (Poa annua [3]): good (A good herbicidal activity is given at values of at least 70)
herbicidal activity (Apera spica-venti [4]; 2000 g/ha): very good (a very good herbicidal activity is given at values of at least 85)

Brc1ccccc1-c1cnc(C2CC2)nc1C(Br)Br [Ex. 27]
herbicidal activity (Apera spica-venti [4]; 2000 g/ha): very good (a very good herbicidal activity is given at values of at least 85)
herbicidal activity (Echinocloa crus-galli [5]; 2000 g/ha): very good (a very good herbicidal activity is given at values of at least 85)
herbicidal activity (Agrostis stolonifera): very good (a very good herbicidal activity is given at values of at least 85)
herbicidal activity (Amaranthus retroflexus [6]; 2000 g/ha): very good (a very good herbicidal activity is given at values of at least 85)
herbicidal activity (Alopecurus myosuroides; post-emergence, 2000 g/ha): very good (a very good herbicidal activity is given at values of at least 85)
herbicidal activity (Echinocloa crus-galli [1]; post-emergence, 2000 g/ha): very good (a very good herbicidal activity is given at values of at least 85)

Cc1nc(C2CC2)ncc1-c1ccccc1C(F)(F)F [Ex. 17]
herbicidal activity (Setaria faberi; 2000 g/ha): very good (a very good herbicidal activity is given at values of at least 85)
herbicidal activity (Echinocloa crus-galli [5]; 2000 g/ha): very good (a very good herbicidal activity is given at values of at least 85)
herbicidal activity (Agrostis stolonifera): very good (a very good herbicidal activity is given at values of at least 85)

Cc1noc(-c2nc(C3CC3)ncc2-c2ccccc2Cl)n1 [Ex. 295]
herbicidal activity (Apera spica-venti [4]; 2000 g/ha): very good (a very good herbicidal activity is given at values of at least 85)
herbicidal activity (Echinocloa crus-galli [5]; 2000 g/ha): very good (a very good herbicidal activity is given at values of at least 85)
herbicidal activity (Alopecurus myosuroides; post-emergence, 2000 g/ha): very good (a very good herbicidal activity is given at values of at least 85)
herbicidal activity (Amaranthus retroflexus [2]; 2000 g/ha): very good (a very good herbicidal activity is given at values of at least 85)
herbicidal activity (Avena fatua): very good (a very good herbicidal activity is given at values of at least 85)

N#CC(C#N)c1nc(C2CC2)ncc1-c1ccc(F)cc1Br [Ex. 36]
herbicidal activity (Poa annua [8]): very good (a very good herbicidal activity is given at values of at least 85)
herbicidal activity (Agrostis stolonifera): very good (a very good herbicidal activity is given at values of at least 85)
herbicidal activity (Matricaria inodora): very good (a very good herbicidal activity is given at values of at least 85)

Clc1ccccc1-c1cnc(C2CC2)nc1C(Br)Br [Ex. 35]
herbicidal activity (Apera spica-venti [4]; 2000 g/ha): very good (a very good herbicidal activity is given at values of at least 85)
herbicidal activity (Echinocloa crus-galli [5]; 2000 g/ha): very good (a very good herbicidal activity is given at values of at least 85)
herbicidal activity (Agrostis stolonifera): very good (a very good herbicidal activity is given at values of at least 85)
herbicidal activity (Amaranthus retroflexus [6]; 2000 g/ha): very good (a very good herbicidal activity is given at values of at least 85)
herbicidal activity (Alopecurus myosuroides; post-emergence, 2000 g/ha): very good (a very good herbicidal activity is given at values of at least 85)
herbicidal activity (Echinocloa crus-galli [1]; post-emergence, 2000 g/ha): very good (a very good herbicidal activity is given at values of at least 85)

OC1(c2nc(C3CC3)ncc2-c2ccccc2Cl)C(F)(F)C(F)(F)C(F)(F)C(F)(F)C1(F)F [Ex. 229]
herbicidal activity (Apera spica-venti [4]; 1000 g/ha): very good (a very good herbicidal activity is given at values of at least 85)
herbicidal activity (Amaranthus retroflexus [2]; 1000 g/ha): good (A good herbicidal activity is given at values of at least 70)

N#CC(C#N)c1nc(C2CC2)ncc1-c1ccccc1Br [Ex. 25]
herbicidal activity (Poa annua [8]): very good (a very good herbicidal activity is given at values of at least 85)
herbicidal activity (Agrostis stolonifera): very good (a very good herbicidal activity is given at values of at least 85)
herbicidal activity (Matricaria inodora): very good (a very good herbicidal activity is given at values of at least 85)

Fc1ccc(-c2nc(C3CC3)ncc2-c2ccccc2Cl)cc1 [Ex. 11]
herbicidal activity (Setaria faberi; 2000 g/ha): very good (a very good herbicidal activity is given at values of at least 85)
herbicidal activity (Echinocloa crus-galli [5]; 2000 g/ha): good (A good herbicidal activity is given at values of at least 70)

COC(=O)C(C)c1nc(C2CC2)ncc1-c1ccccc1Cl (stereo not shown) [Ex. 87]
herbicidal activity (Alopecurus myosuroides; post-emergence, 2000 g/ha): very good (a very good herbicidal activity is given at values of at least 85)
herbicidal activity (Amaranthus retroflexus [2]; 2000 g/ha): good (A good herbicidal activity is given at values of at least 70)

COCC(=Cc1nc(C2CC2)ncc1-c1ccccc1Cl)COC [Ex. 293]
herbicidal activity (Setaria faberi; 1000 g/ha): very good (a very good herbicidal activity is given at values of at least 85)
herbicidal activity (Abutilon theophrasti): good (A good herbicidal activity is given at values of at least 70)
herbicidal activity (Echinocloa crus-galli [5]; 1000 g/ha): good (A good herbicidal activity is given at values of at least 70)
